Reference: ChEMBL document CHEMBL3751693, “Synthesis, antimicrobial evaluation and molecular modeling of 5-hydroxyisoquinolinium salt series; the effect of the hydroxyl moiety” (Bioorg Med Chem, 2016)

Columns and labels:
[1] = tested on: Staphylococcus epidermidis; assay: Antimicrobial activity against clinical isolate Staphylococcus epidermidis H 696608 after 48 hrs; assay type: functional; conditions: H 696608, 48 h
Klebsiella pneumoniae [2] = assay: Antimicrobial activity against clinical isolate ESBL-Klebsiella pneumoniae J 1436808 after 24 hrs; assay type: functional; conditions: J 1436808, 24 h
Enterococcus sp. [3] = assay: Antimicrobial activity against clinical isolate Enterococcus sp. J 1436508 after 24 hrs; assay type: functional; conditions: J 1436508, 24 h
[4] = Cytotoxicity against CHOK1 cells after 24 hrs by MTT assay; assay type: cell-based; conditions: Cricetulus griseus, CHO-K1, 24 h
Candida tropicalis [5] = assay: Antimicrobial activity against Candida tropicalis 156 after 24 hrs by spectrophotometry; assay type: functional; conditions: Candida tropicalis, 156, 24 h
Candida albicans [6] = assay: Antimicrobial activity against Candida albicans ATCC 44859 after 48 hrs by spectrophotometry; assay type: functional; conditions: ATCC 44859, 48 h
Staphylococcus aureus [7] = assay: Antimicrobial activity against clinical isolate Staphylococcus aureus CCM 451608 after 24 hrs; assay type: functional; conditions: CCM 451608, 24 h
Pseudomonas aeruginosa [8] = assay: Antimicrobial activity against clinical isolate Pseudomonas aeruginosa CCM 1961 after 72 hrs; assay type: functional; conditions: CCM 1961, 72 h
Nakaseomyces glabratus [9] = assay: Antimicrobial activity against Candida glabrata 20/I after 24 hrs by spectrophotometry; assay type: functional
Escherichia coli [10] = assay: Antimicrobial activity against clinical isolate Escherichia coli CCM 4517 after 24 hrs; assay type: functional; conditions: CCM 4517, 24 h
Pichia kudriavzevii [11] = assay: Antimicrobial activity against Candida krusei E28 after 24 hrs by spectrophotometry; assay type: functional; conditions: E28, 24 h
Klebsiella pneumoniae [12] = assay: Antimicrobial activity against clinical isolate Klebsiella pneumoniae D 1175008 after 24 hrs; assay type: functional; conditions: D 1175008, 24 h
[13] = tested on: Trichophyton mentagrophytes; assay: Antimicrobial activity against Trichophyton mentagrophytes 445 after 120 hrs by spectrophotometry; assay type: functional; conditions: Trichophyton mentagrophytes, 445, 120 h
Pichia kudriavzevii [14] = assay: Antimicrobial activity against Candida krusei E28 after 48 hrs by spectrophotometry; assay type: functional; conditions: E28, 48 h
Nakaseomyces glabratus [15] = assay: Antimicrobial activity against Candida glabrata 20/I after 48 hrs by spectrophotometry; assay type: functional
Candida albicans [16] = assay: Antimicrobial activity against Candida albicans ATCC 44859 after 24 hrs by spectrophotometry; assay type: functional; conditions: ATCC 44859, 24 h
[17] = tested on: Staphylococcus epidermidis; assay: Antimicrobial activity against clinical isolate Staphylococcus epidermidis H 696608 after 24 hrs; assay type: functional; conditions: H 696608, 24 h
Staphylococcus aureus [18] = assay: Antimicrobial activity against clinical isolate methicillin-resistant Staphylococcus aureus H 599608 after 24 hrs; assay type: functional; conditions: H 599608, 24 h
Staphylococcus aureus [19] = assay: Antimicrobial activity against clinical isolate methicillin-resistant Staphylococcus aureus H 599608 after 48 hrs; assay type: functional; conditions: H 599608, 48 h
Lichtheimia corymbifera [20] = assay: Antimicrobial activity against Absidia corymbifera 272 after 48 hrs by spectrophotometry; assay type: functional; conditions: Lichtheimia corymbifera, 272, 48 h
Aspergillus fumigatus [21] = assay: Antimicrobial activity against Aspergillus fumigatus 231 after 24 hrs by spectrophotometry; assay type: functional; conditions: Aspergillus fumigatus, 231, 24 h
Candida tropicalis [22] = assay: Antimicrobial activity against Candida tropicalis 156 after 48 hrs by spectrophotometry; assay type: functional; conditions: Candida tropicalis, 156, 48 h
Aspergillus fumigatus [23] = assay: Antimicrobial activity against Aspergillus fumigatus 231 after 48 hrs by spectrophotometry; assay type: functional; conditions: Aspergillus fumigatus, 231, 48 h
Klebsiella pneumoniae [24] = assay: Antimicrobial activity against clinical isolate ESBL-Klebsiella pneumoniae J 1436808 after 48 hrs; assay type: functional; conditions: J 1436808, 48 h
Lichtheimia corymbifera [25] = assay: Antimicrobial activity against Absidia corymbifera 272 after 24 hrs by spectrophotometry; assay type: functional; conditions: Lichtheimia corymbifera, 272, 24 h
Staphylococcus aureus [26] = assay: Antimicrobial activity against clinical isolate Staphylococcus aureus CCM 451608 after 48 hrs; assay type: functional; conditions: CCM 451608, 48 h
[27] = tested on: Trichophyton mentagrophytes; assay: Antimicrobial activity against Trichophyton mentagrophytes 445 after 72 hrs by spectrophotometry; assay type: functional; conditions: Trichophyton mentagrophytes, 445, 72 h
Klebsiella pneumoniae [28] = assay: Antimicrobial activity against clinical isolate Klebsiella pneumoniae D 1175008 after 48 hrs; assay type: functional; conditions: D 1175008, 48 h
Trichosporon asahii [29] = assay: Antimicrobial activity against Trichosporon asahii 1188 after 48 hrs by spectrophotometry; assay type: functional; conditions: Trichosporon asahii, 1188, 48 h
Escherichia coli [30] = assay: Antimicrobial activity against clinical isolate Escherichia coli CCM 4517 after 48 hrs; assay type: functional; conditions: CCM 4517, 48 h
Enterococcus sp. [31] = assay: Antimicrobial activity against clinical isolate Enterococcus sp. J 1436508 after 48 hrs; assay type: functional; conditions: J 1436508, 48 h
Trichosporon asahii [32] = assay: Antimicrobial activity against Trichosporon asahii 1188 after 24 hrs by spectrophotometry; assay type: functional; conditions: Trichosporon asahii, 1188, 24 h
Pseudomonas aeruginosa [33] = assay: Antimicrobial activity against clinical isolate Pseudomonas aeruginosa CCM 1961 after 120 hrs; assay type: functional; conditions: CCM 1961, 120 h

CCCCCCCCCCCCCC[n+]1ccc2ccccc2c1 showed an MBC [1] of 1 µM, an MIC [1] of 0.5 µM and an MIC (Klebsiella pneumoniae [2]) of 31 µM. The MIC (Enterococcus sp. [3]) was 0.5 µM, the IC50 [4] was 9 µM and the MIC (Candida tropicalis [5]) was 0.5 µM. The MFC (Candida albicans [6]) was 1 µM, the MIC (Candida albicans [6]) was 0.5 µM and the MIC (Staphylococcus aureus [7]) was 0.5 µM. The MIC (Pseudomonas aeruginosa [8]) was 63 µM, the MIC (Nakaseomyces glabratus [9]) was 0.5 µM and the MIC (Escherichia coli [10]) was 2 µM. The MIC (Pichia kudriavzevii [11]) was 0.5 µM, the MIC (Klebsiella pneumoniae [12]) was 3.9 µM and the MFC [13] was 16 µM. For the same compound, the MIC [13] was 3.9 µM, the MFC (Pichia kudriavzevii [14]) was 1 µM and the MIC (Pichia kudriavzevii [14]) was 0.5 µM. It also gave an MFC (Nakaseomyces glabratus [15]) of 3.9 µM, an MIC (Nakaseomyces glabratus [15]) of 0.5 µM and an MIC (Candida albicans [16]) of 0.5 µM. The MIC [17] was 0.5 µM, the MIC (Staphylococcus aureus [18]) was 0.5 µM and the MBC (Staphylococcus aureus [19]) was 1 µM. The MIC (Staphylococcus aureus [19]) was 0.5 µM, the MFC (Lichtheimia corymbifera [20]) was 250 µM and the MIC (Lichtheimia corymbifera [20]) was 31 µM. For the same compound, the MIC (Aspergillus fumigatus [21]) was 7.8 µM, the MFC (Candida tropicalis [22]) was 1 µM and the MIC (Candida tropicalis [22]) was 0.5 µM. The MFC (Aspergillus fumigatus [23]) was 7.8 µM, the MIC (Aspergillus fumigatus [23]) was 7.8 µM and the MBC (Klebsiella pneumoniae [24]) was 31 µM. For the same compound, the MIC (Klebsiella pneumoniae [24]) was 31 µM, the MIC (Lichtheimia corymbifera [25]) was 31 µM and the MBC (Staphylococcus aureus [26]) was 1 µM. It also gave an MIC (Staphylococcus aureus [26]) of 0.5 µM, an MIC [27] of 3.9 µM and an MBC (Klebsiella pneumoniae [28]) of 3.9 µM. For the same compound, the MIC (Klebsiella pneumoniae [28]) was 3.9 µM, the MFC (Trichosporon asahii [29]) was 3.9 µM and the MIC (Trichosporon asahii [29]) was 3.9 µM. For the same compound, the MBC (Escherichia coli [30]) was 3.9 µM, the MIC (Escherichia coli [30]) was 2 µM and the MBC (Enterococcus sp. [31]) was 3.9 µM. It also gave an MIC (Enterococcus sp. [31]) of 0.5 µM, an MIC (Trichosporon asahii [32]) of 3.9 µM and an MBC (Pseudomonas aeruginosa [33]) of 63 µM. It also gave an MIC (Pseudomonas aeruginosa [33]) of 63 µM.
For CCCCCCCCCC[n+]1ccc2c(O)cccc2c1, the MBC [1] was 250 µM, the MIC [1] was 250 µM and the MIC (Klebsiella pneumoniae [2]) was 500 µM. It also gave an MIC (Enterococcus sp. [3]) of 500 µM, an IC50 [4] of 92 µM and an MIC (Candida tropicalis [5]) of 125 µM. The MFC (Candida albicans [6]) was 250 µM, the MIC (Candida albicans [6]) was 250 µM and the MIC (Staphylococcus aureus [7]) was 16 µM. The MIC (Pseudomonas aeruginosa [8]) was 250 µM, the MIC (Nakaseomyces glabratus [9]) was 16 µM and the MIC (Escherichia coli [10]) was 63 µM. The MIC (Pichia kudriavzevii [11]) was 31 µM, the MIC (Klebsiella pneumoniae [12]) was 63 µM and the MFC [13] was 125 µM. The MIC [13] was 31 µM, the MFC (Pichia kudriavzevii [14]) was 31 µM and the MIC (Pichia kudriavzevii [14]) was 31 µM. For the same compound, the MFC (Nakaseomyces glabratus [15]) was 63 µM, the MIC (Nakaseomyces glabratus [15]) was 16 µM and the MIC (Candida albicans [16]) was 250 µM. The MIC [17] was 250 µM, the MIC (Staphylococcus aureus [18]) was 31 µM and the MBC (Staphylococcus aureus [19]) was 16 µM. The MIC (Staphylococcus aureus [19]) was 31 µM, the MFC (Lichtheimia corymbifera [20]) was > 500 µM and the MIC (Lichtheimia corymbifera [20]) was > 500 µM. The MIC (Aspergillus fumigatus [21]) was > 500 µM, the MFC (Candida tropicalis [22]) was 500 µM and the MIC (Candida tropicalis [22]) was 125 µM. The MFC (Aspergillus fumigatus [23]) was > 500 µM, the MIC (Aspergillus fumigatus [23]) was > 500 µM and the MBC (Klebsiella pneumoniae [24]) was 500 µM. The MIC (Klebsiella pneumoniae [24]) was 500 µM, the MIC (Lichtheimia corymbifera [25]) was > 500 µM and the MBC (Staphylococcus aureus [26]) was 63 µM. The MIC (Staphylococcus aureus [26]) was 16 µM, the MIC [27] was 31 µM and the MBC (Klebsiella pneumoniae [28]) was 63 µM. For the same compound, the MIC (Klebsiella pneumoniae [28]) was 63 µM, the MFC (Trichosporon asahii [29]) was 500 µM and the MIC (Trichosporon asahii [29]) was 250 µM. It also gave an MBC (Escherichia coli [30]) of 63 µM, an MIC (Escherichia coli [30]) of 63 µM and an MBC (Enterococcus sp. [31]) of 500 µM. The MIC (Enterococcus sp. [31]) was 500 µM, the MIC (Trichosporon asahii [32]) was 250 µM and the MBC (Pseudomonas aeruginosa [33]) was > 500 µM. It also gave an MIC (Pseudomonas aeruginosa [33]) of 250 µM.
With CCCCCCCCCCCCCC[n+]1ccc2c(O)cccc2c1 the MBC [1] was 7.8 µM, the MIC [1] was 3.9 µM and the MIC (Klebsiella pneumoniae [2]) was > 500 µM. For the same compound, the MIC (Enterococcus sp. [3]) was 63 µM, the IC50 [4] was 24 µM and the MIC (Candida tropicalis [5]) was 7.8 µM. The MFC (Candida albicans [6]) was 63 µM, the MIC (Candida albicans [6]) was 63 µM and the MIC (Staphylococcus aureus [7]) was 0.5 µM. The MIC (Pseudomonas aeruginosa [8]) was > 500 µM, the MIC (Nakaseomyces glabratus [9]) was 3.9 µM and the MIC (Escherichia coli [10]) was > 500 µM. The MIC (Pichia kudriavzevii [11]) was 3.9 µM, the MIC (Klebsiella pneumoniae [12]) was > 500 µM and the MFC [13] was 31 µM. The MIC [13] was 16 µM, the MFC (Pichia kudriavzevii [14]) was 3.9 µM and the MIC (Pichia kudriavzevii [14]) was 3.9 µM. The MFC (Nakaseomyces glabratus [15]) was 7.8 µM, the MIC (Nakaseomyces glabratus [15]) was 3.9 µM and the MIC (Candida albicans [16]) was 63 µM. The MIC [17] was 3.9 µM, the MIC (Staphylococcus aureus [18]) was 2 µM and the MBC (Staphylococcus aureus [19]) was 2 µM. The MIC (Staphylococcus aureus [19]) was 2 µM, the MFC (Lichtheimia corymbifera [20]) was 125 µM and the MIC (Lichtheimia corymbifera [20]) was 63 µM. It also gave an MIC (Aspergillus fumigatus [21]) of 31 µM, an MFC (Candida tropicalis [22]) of 7.8 µM and an MIC (Candida tropicalis [22]) of 7.8 µM. The MFC (Aspergillus fumigatus [23]) was 125 µM, the MIC (Aspergillus fumigatus [23]) was 31 µM and the MBC (Klebsiella pneumoniae [24]) was > 500 µM. The MIC (Klebsiella pneumoniae [24]) was 500 µM, the MIC (Lichtheimia corymbifera [25]) was 63 µM and the MBC (Staphylococcus aureus [26]) was 1 µM. The MIC (Staphylococcus aureus [26]) was 0.5 µM, the MIC [27] was 16 µM and the MBC (Klebsiella pneumoniae [28]) was > 500 µM. For the same compound, the MIC (Klebsiella pneumoniae [28]) was > 500 µM, the MFC (Trichosporon asahii [29]) was 7.8 µM and the MIC (Trichosporon asahii [29]) was 7.8 µM. For the same compound, the MBC (Escherichia coli [30]) was > 500 µM, the MIC (Escherichia coli [30]) was > 500 µM and the MBC (Enterococcus sp. [31]) was 63 µM. For the same compound, the MIC (Enterococcus sp. [31]) was 63 µM, the MIC (Trichosporon asahii [32]) was 7.8 µM and the MBC (Pseudomonas aeruginosa [33]) was > 500 µM. The MIC (Pseudomonas aeruginosa [33]) was > 500 µM.
